Patent US8008326B2, “4-benzyledene-piperidin derivatives” (Richter Gedeon Vegyeszeti Gyar Rt., priority 2004, dated 2011)
Like-named read-outs stand apart in the source and are kept apart here. Marks after values point to notes of the source that are not given here.

Legend:
[1] = target: T1, NR2B containing NMDA receptors (rat cortical cells) (Rattus norvegicus, UniProt P35439+Q00960); assay: NMDA antagonist potency by intracellular calcium measurement with plate reader fluorimeter in rat cortical cell culture; type: cell-based; conditions: fluorimetric method
T1 construct: The cells at this in vitro age are believed to express predominantly NR2B containing NMDA receptors; endogenous in cells; host or cells: primary neocortical cell culture from 17 day old rat embryos, 3-7 days in vitro
T1 sequence (Q00960 27-1482, other chains not shown): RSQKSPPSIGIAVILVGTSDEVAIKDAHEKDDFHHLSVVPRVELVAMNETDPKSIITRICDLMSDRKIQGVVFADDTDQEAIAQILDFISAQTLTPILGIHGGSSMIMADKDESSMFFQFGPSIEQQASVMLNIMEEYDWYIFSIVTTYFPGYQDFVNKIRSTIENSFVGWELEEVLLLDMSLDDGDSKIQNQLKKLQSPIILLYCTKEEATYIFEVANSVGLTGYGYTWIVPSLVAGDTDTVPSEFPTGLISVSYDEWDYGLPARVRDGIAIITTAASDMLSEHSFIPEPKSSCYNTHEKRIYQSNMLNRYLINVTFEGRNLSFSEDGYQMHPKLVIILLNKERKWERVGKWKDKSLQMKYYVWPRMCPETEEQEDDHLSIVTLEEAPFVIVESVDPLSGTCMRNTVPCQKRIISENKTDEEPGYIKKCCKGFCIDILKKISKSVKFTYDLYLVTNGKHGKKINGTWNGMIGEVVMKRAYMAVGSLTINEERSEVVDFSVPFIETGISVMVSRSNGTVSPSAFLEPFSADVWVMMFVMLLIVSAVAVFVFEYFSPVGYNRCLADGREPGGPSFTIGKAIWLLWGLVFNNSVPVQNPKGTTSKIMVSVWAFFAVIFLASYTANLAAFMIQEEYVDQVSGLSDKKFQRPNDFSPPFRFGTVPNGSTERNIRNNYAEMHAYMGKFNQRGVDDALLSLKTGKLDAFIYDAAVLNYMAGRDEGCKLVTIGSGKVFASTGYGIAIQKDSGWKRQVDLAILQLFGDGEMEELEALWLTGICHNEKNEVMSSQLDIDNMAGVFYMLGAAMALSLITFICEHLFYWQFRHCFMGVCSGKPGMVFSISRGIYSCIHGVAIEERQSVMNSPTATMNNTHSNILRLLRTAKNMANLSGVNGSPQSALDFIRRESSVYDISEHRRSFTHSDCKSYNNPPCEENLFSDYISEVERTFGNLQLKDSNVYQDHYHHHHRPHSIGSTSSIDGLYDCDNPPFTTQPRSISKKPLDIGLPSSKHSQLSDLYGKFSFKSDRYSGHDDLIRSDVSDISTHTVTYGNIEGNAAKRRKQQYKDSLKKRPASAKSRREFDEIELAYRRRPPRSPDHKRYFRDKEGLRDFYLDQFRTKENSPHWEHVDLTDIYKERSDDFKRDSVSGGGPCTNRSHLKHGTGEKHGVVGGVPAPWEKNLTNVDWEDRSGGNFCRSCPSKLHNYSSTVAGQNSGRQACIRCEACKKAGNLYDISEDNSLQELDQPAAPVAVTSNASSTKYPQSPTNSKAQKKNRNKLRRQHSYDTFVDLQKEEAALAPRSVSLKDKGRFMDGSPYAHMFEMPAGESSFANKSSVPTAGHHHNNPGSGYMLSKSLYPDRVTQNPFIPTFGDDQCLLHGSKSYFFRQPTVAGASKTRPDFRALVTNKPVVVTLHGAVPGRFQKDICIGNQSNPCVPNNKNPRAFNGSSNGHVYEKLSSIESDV
Description: Assessment of NMDA Antagonist Potency In Vitro by Measurement of Intracellular Calcium Concentration with a Plate Reader Fluorimeter in Rat Cortical Cell Culture
The cultures were used for the intracellular calcium measurements after 3-7 days in vitro. […] Before the measurement the cells were loaded with a fluorescent Ca^2+-sensitive dye, Fluo-4/AM (2 μM). To stop loading the cells were washed twice with the solution used for the measurement (140 mM NaCl, 5 mM KCl, 2 mM CaCl2, 5 mM HEPES, 5 mM HEPES-Na, 20 mM glucose, 10 μM glycine, pH=7.4). After washing, the test compounds were added to the cells in the above solution (90 μl well). Intracellular calcium measurements were carried out with a plate reader fluorimeter: elevation of Fluo-4-fluorescence and so, intracellular calcium concentration was induced by application of 40 μM NMDA. Inhibitory potency of the test compounds was assessed by measuring the reduction in the calcium elevation in the presence of different concentrations of the compounds.
(§1) Dose-response curves and IC50-values were calculated using data derived from at least three independent experiments. Inhibitory potency of a compound at a single concentration point was expressed as percent inhibition of the NMDA response. Sigmoidal concentration-inhibition curves were fit to the data and IC50 values were determined as the concentration that produces half of the maximal inhibition caused by the compound.

NMRI mice [2] = assay: Mouse formalin test, second phase, oral administration; type: in vivo; conditions: 15 min before formalin, licking 20 to 25 min after injection
Description: Injection of diluted formalin into the hind paw of rats or mice is known to elicit a biphasic pain-related behaviour measured as time spent by licking/biting of the injured paw. The second phase is generally defined as pain related events detected in the 15-60 min. time interval after formalin injection, with peak activity at around 30 min. It is known that NMDA receptors are involved in the second phase of response to formalin injection and this behavioural response is sensitive to blockade of NMDA receptors [Dickenson, A. and Besson J.-M. (Editors): Chapter 1, pp. 6-7: Animal models of Analgesia; and Chapter 8, pp. 180-183. Mechanism of Central Hypersensitivity: Excitatory Amino Acid Mechanisms and Their Control—In Pharmacology of Pain. Springer-Verlag (Berlin) 1997.] Therefore, we used the second phase of formalin test to characterize the efficacy of compounds in vivo. Inhibition of the second phase of response is considered to indicate an analgesic effect against chemically-induced persistent pain [Hurker, S., et al.: Formalin Test in Mice, a Useful Technique for Evaluating Mild Analgesics, Journal of Neuroscience Methods, 14 (1985) 69-76.]
Male NMRI […] (20-25 g) were used. Prior to the experiment any solid food was withdrawn for approx. 16 hours but the animals had free access to 20% glucose solution. The animals were allowed 1 hour acclimatization period in a glass cylinder (cc. 15 cm in diameter), then moved to an identical cylinder with a mirror placed behind to facilitate observation. The test substances were suspended in 5% tween-80 (10 ml per kg body weight). and administered orally by gavage 15 min before the formalin injection (20 μl of 1% formalin in 0.9& saline injected subcutaneously into the dorsal surface of the right hindpaw). The time spent by licking and biting of the injected paw was measured from 20 to 25 min. after the formalin injection.

NMRI mice [3] = assay: Spontaneous locomotor activity (LMA) in mice; type: in vivo, mouse; conditions: oral
Description: Measurement of Spontaneous Locomotor Activity in Mice
Male NMRI mice weighing 20-22 g were used in the experiments.
Spontaneous locomotor activity was measured in a four-channel activity monitor. The apparatus consisted of acrylic cages (43 cm×43 cm×32 cm) equipped with 2×16 pairs of photocells along all the bottom axis of the cage. An additional array of photocells (16 pairs) was placed along two opposite sides of the cage at the height of 10 cm in order to detect rearing responses.
Experimental groups consisted of 10 animals. Thirty minutes after the oral administration of the test compound or vehicle (tween-80), the animals were individually placed in one of four cages for one hour. Horizontal and vertical movements were determined as the number of beam interruptions for one hour at 15 ruin intervals.
Mean±SE of horizontal activity data of each group was calculated then percentual changes compared to the control (vehicle-treated) group were determined. A compound was considered to cause locomotor stimulation when its effect exceeded 50% increase in beam interruptions. Consequently, doses defined as free from stimulatory action (LMAfree) produced less than 50% increase.

[4] = target: T2, recombinant NMDA receptors NR1/NR2A (HEK293 cells) (Homo sapiens, UniProt Q12879); assay: Inhibition of NMDA evoked cytosolic calcium elevation in HEK293 cells transfected with NR1/NR2A; type: cell-based
T2 construct: expressed in transfected cells
T2 sequence (Q12879 23-1464, other chains not shown): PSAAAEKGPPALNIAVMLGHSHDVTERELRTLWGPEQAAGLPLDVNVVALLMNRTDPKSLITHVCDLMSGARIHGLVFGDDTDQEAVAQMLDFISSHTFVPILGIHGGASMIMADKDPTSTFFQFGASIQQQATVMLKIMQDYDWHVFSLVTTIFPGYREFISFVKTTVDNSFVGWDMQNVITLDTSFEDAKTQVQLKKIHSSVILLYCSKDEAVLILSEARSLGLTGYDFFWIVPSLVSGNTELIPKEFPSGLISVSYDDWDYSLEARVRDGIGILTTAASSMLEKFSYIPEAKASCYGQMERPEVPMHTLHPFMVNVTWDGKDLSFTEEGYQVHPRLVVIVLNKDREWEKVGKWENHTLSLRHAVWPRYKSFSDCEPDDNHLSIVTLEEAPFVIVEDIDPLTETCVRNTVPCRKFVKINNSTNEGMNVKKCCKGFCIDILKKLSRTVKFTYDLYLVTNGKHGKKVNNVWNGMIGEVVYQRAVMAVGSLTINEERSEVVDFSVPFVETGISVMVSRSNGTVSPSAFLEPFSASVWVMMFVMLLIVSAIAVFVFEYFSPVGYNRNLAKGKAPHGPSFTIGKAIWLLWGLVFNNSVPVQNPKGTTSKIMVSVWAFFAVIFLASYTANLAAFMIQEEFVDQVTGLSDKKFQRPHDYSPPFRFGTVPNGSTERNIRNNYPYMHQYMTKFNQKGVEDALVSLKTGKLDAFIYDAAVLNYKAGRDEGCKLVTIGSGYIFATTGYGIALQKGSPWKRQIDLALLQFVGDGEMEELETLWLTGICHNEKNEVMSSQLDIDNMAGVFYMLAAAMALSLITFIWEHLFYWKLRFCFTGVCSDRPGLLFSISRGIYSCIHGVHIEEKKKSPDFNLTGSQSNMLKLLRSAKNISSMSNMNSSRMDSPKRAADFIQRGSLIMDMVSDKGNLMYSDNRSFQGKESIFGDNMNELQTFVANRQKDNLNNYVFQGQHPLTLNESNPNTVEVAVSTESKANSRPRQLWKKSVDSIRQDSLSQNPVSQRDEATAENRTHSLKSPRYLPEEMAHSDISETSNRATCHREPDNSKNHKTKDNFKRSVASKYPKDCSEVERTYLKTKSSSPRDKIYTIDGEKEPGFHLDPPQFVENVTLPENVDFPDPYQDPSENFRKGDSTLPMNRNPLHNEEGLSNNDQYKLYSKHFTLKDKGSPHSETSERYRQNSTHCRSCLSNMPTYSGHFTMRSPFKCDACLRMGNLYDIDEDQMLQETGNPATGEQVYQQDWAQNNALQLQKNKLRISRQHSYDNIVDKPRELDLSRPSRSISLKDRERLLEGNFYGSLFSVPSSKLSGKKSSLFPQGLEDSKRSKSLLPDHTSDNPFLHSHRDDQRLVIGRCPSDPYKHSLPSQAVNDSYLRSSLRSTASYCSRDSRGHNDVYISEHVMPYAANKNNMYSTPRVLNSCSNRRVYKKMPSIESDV
Description: Expression of Recombinant NMDA Receptors
(1997); Neurochemistry International, 43, 19-29. (2003)]. […] Compounds were tested for their inhibitory action on NMDA evoked cytosolic calcium elevations in fluorescent calcium measurements. Studies were performed 48-72 h after addition of the inducing agent. Ketamine (500 μM) was also present during the induction in order to prevent cytotoxicity.
as §1

[5] = cited from earlier work
[6] = 40 μM NMDA, read-out: Rat cortical cells (NR2B) appr. IC50
[7] = J. Pharmacol. Exp. Ther. 302 (2002), Behav. Pharmacol. 14 (2003)
[8] = other group, Neuropharmacology 38 (1999)

Compound: Cc1ccc(C=C2CCN(C(=O)C(=O)Nc3ccc4[nH]c(=O)sc4c3)CC2)cc1 [Compound 25]
- IC50 [1, 6]: < 50 nM

Compound: O=C(Nc1ccc2[nH]c(=O)oc2c1)C(=O)N1CCC(Cc2ccccc2)CC1 [A, 2-(4-benzyl-piperidin-1-yl)-2-oxo-N-(2-oxo-2,3-dihydro-benzoxazol-6-yl)-acetamide]
- ED50 (NMRI mice [2]): 0.85 mg/kg
- LMA % increase (NMRI mice [3]; dose 1 mg/kg): 34* %
- LMA % increase (NMRI mice [3]; dose 3 mg/kg): 62%

Compound: C[C@]12N[C@H](Cc3ccccc31)c1ccccc12 [MK-801, (+)-5-Methyl-10,11-dihydro-5H-dibenzo[a,d]cyclohepten-5,10-imine]
- ED50 (NMRI mice [2]): 0.15 mg/kg
- LMA % inc. (NMRI mice [3]; dose 0.1 mg/kg): 114%
- LMA % inc. (NMRI mice [3]; dose 0.3 mg/kg): 217%

Compound: COc1ccc(C=C2CCN(C(=O)C(=O)Nc3ccc(NS(C)(=O)=O)cc3)CC2)cc1 [Compound 40]
- inhibition at 15 µM ([4]; HEK293): < 30%
- IC50 [1, 6]: < 50 nM

Compound: Cc1ccc(C=C2CCN(C(=O)C(=O)Nc3ccc4[nH]c(=O)n(C)c4c3)CC2)cc1 [Compound 23]
- IC50 [1, 6]: 50 to 500 nM

Compound: COc1ccc(C=C2CCN(C(=O)C(=O)Nc3ccc4[nH]c(=O)n(C)c4c3)CC2)cc1 [Compound 33]
- IC50 [1, 6]: 50 to 500 nM

Compound: O=C1COc2cc(NC(=O)C(=O)N3CCC(=Cc4ccc(Cl)cc4)CC3)ccc2N1 [Compound 17]
- IC50 [1, 6]: 500 to 1000 nM

Compound: O=C(CCN1CCC(Cc2ccc(F)cc2)CC1)c1ccc2[nH]c(=O)oc2c1 [EMD 95885, reference compound]
- NR1-3/NR2A % inhibition at 10 μM ([4]; 10 μM): 0.1%
- IC50 ([1]; reference compounds, read-out: rat cortical cells IC50): 35 nM

Compound: C[C@@H](CN1CCC(Cc2ccccc2)CC1)[C@@H](O)c1ccc(O)cc1 [Ro 25.6981, R—(R*,S*)-1-(4-hydroxyphenyl)-2-methyl-3-[4-(phenylmethyl)piperidine-1-yl]-1-propanol]
- ED50 (NMRI mice [2]): > 20 mg/kg
- inhibition at 10 µM ([4]; HEK293, read-out: NR1-3/NR2A % inhibition at 10 μM): 1%
- effect on locomotor activity [5, 7]: increase locomotor activity
- effect on locomotor activity [5, 8]: no such effect was observed

Compound: Cc1ccc(CC2CCN(C(=O)C(=O)Nc3ccc4c(c3)CC(=O)N4)CC2)cc1 [B, 2-[4-[4-methyl-benzyl)-piperidin-1-yl]-2-oxo-N-(2-oxo-2,3-dihydro-1H-indol-5-yl)-acetamide]
- ED50 (NMRI mice [2]): 0.48 mg/kg
- LMA % increase (NMRI mice [3]; dose 3.75 mg/kg): 72%
- LMA % increase (NMRI mice [3]; dose 7.5 mg/kg): 141%

Compound: Cc1ccc(CC2(O)CCN(CCOc3ccc(O)cc3)CC2)cc1 [Ro 63-1908]
- effect on locomotor activity [5, 7]: increase locomotor activity

Compound: O=c1[nH]c2ccc([S+]([O-])CCN3CCC(Cc4ccc(F)cc4)CC3)cc2o1 (stereo not shown) [CI-1041, 6-{2-[4-(4-fluoro-benzyl)-piperidin-1-yl]-ethanesulfinyl}-3H-benzooxazol-2-one]
- ED50 (NMRI mice [2]): 2.4 mg/kg
- LMA % inc. (NMRI mice [3]; dose 10 mg/kg): 137%

Compound: O=C(Nc1ccc2[nH]c(=O)sc2c1)C(=O)N1CCC(=Cc2ccccc2)CC1 [Compound 5]
- inhibition at 15 µM ([4]; HEK293): < 30%
- IC50 [1, 6]: < 50 nM

Compound: Cc1ccc(C=C2CCN(C(=O)C(=O)Nc3ccc(NS(C)(=O)=O)cc3)CC2)cc1 [Compound 30]
- IC50 [1, 6]: 50 to 500 nM

Compound: Cc1ccc(C=C2CCN(C(=O)C(=O)Nc3ccc4[nH]c(=O)[nH]c4c3)CC2)cc1 [Compound 22]
- inhibition at 15 µM ([4]; HEK293): < 30%
- IC50 [1, 6]: < 50 nM

Compound: O=C(Nc1ccc2[nH]c(=O)oc2c1)C(=O)N1CCC(=Cc2ccc(Cl)cc2)CC1 [Compound 11]
- IC50 [1, 6]: < 50 nM

Compound: Cn1c(=O)[nH]c2ccc(NC(=O)C(=O)N3CCC(=Cc4ccccc4)CC3)cc21 [Compound 3]
- IC50 [1, 6]: 50 to 500 nM

Compound: O=C(Nc1ccc2[nH]c(=O)oc2c1)C(=O)N1CCC(=Cc2ccccc2)CC1 [Compound 1, 2-(4-Benzylidene-piperidine-1-yl)-2-oxo-N-(2-oxo-2,3-dihydro-benzooxazol-6-yl)-acetamide]
- ED50 (NMRI mice [2]): 1 mg/kg
- inhibition at 15 µM ([4]; HEK293): < 30%
- IC50 [1, 6]: < 50 nM
- LMA % increase (NMRI mice [3]; dose 60 mg/kg): 35* %
- LMA % increase (NMRI mice [3]; dose 120 mg/kg): 69%

Compound: O=C(Nc1ccc2[nH]c(=O)[nH]c2c1)C(=O)N1CCC(=Cc2ccc(Cl)cc2)CC1 [Compound 12]
- IC50 [1, 6]: < 50 nM

Compound: CS(=O)(=O)Nc1ccc(NC(=O)C(=O)N2CCC(=Cc3ccccc3)CC2)cc1 [Compound 10]
- IC50 [1, 6]: 50 to 500 nM

Compound: COc1ccc(C=C2CCN(C(=O)C(=O)Nc3ccc4[nH]c(=O)[nH]c4c3)CC2)cc1 [Compound 32]
- inhibition at 15 µM ([4]; HEK293): < 30%
- IC50 [1, 6]: < 50 nM

Compound: O=C(Nc1ccc2[nH]c(=S)oc2c1)C(=O)N1CCC(=Cc2ccc(Cl)cc2)CC1 [Compound 16]
- IC50 [1, 6]: 50 to 500 nM

Compound: O=C1COc2cc(NC(=O)C(=O)N3CCC(=Cc4ccccc4)CC3)ccc2N1 [Compound 7]
- IC50 [1, 6]: 500 to 1000 nM

Compound: Cn1c(=O)[nH]c2ccc(NC(=O)C(=O)N3CCC(=Cc4ccc(Cl)cc4)CC3)cc21 [Compound 13]
- IC50 [1, 6]: 50 to 500 nM

Compound: Cc1ccc(C=C2CCN(C(=O)C(=O)Nc3ccc4c(c3)OCC(=O)N4)CC2)cc1 [Compound 27]
- IC50 [1, 6]: 50 to 500 nM

Compound: Cc1ccc(C=C2CCN(C(=O)C(=O)Nc3ccc4[nH]c(=S)oc4c3)CC2)cc1 [Compound 26]
- IC50 [1, 6]: 50 to 500 nM

Compound: O=C1Cc2cc(NC(=O)C(=O)N3CCC(=Cc4ccc(Cl)cc4)CC3)ccc2N1 [Compound 14]
- IC50 [1, 6]: 50 to 500 nM

Compound: O=C(Nc1ccc2[nH]c(=O)sc2c1)C(=O)N1CCC(=Cc2ccc(Cl)cc2)CC1 [Compound 15]
- IC50 [1, 6]: < 50 nM

Compound: CS(=O)(=O)Nc1ccc(NC(=O)C(=O)N2CCC(=Cc3ccc(Cl)cc3)CC2)cc1 [Compound 20]
- IC50 [1, 6]: 50 to 500 nM

Compound: C[C@@H]([C@@H](O)c1ccc(O)cc1)N1CCC(O)(c2ccccc2)CC1 [CP-101,606, (1S,2S)-1-(4-hydroxyphenyl)-2-(4-hydroxy-4-phenylpiperidine-1-yl)-1-propanol]
- ED50 (NMRI mice [2]): > 20 mg/kg
- effect on locomotor activity [5, 8]: no such effect was observed
- locomotor stimulating effect ([5]; up to 56 mg/kg s.c. and 100 mg/kg i.p., Soc. Neurosc. Abstr. 21 (1995)): Lack of locomotor stimulating effect

Compound: O=C1Cc2cc(NC(=O)C(=O)N3CCC(=Cc4ccc(F)cc4)CC3)ccc2N1 [Compound 42]
- IC50 [1, 6]: 500 to 1000 nM

Compound: O=C(Nc1ccc2[nH]c(=O)oc2c1)C(=O)N1CCC(=Cc2ccc(F)cc2)CC1 [Compound 41]
- inhibition at 15 µM ([4]; HEK293): < 30%
- IC50 [1, 6]: < 50 nM

Compound: O=C(Nc1ccc2[nH]c(=S)oc2c1)C(=O)N1CCC(=Cc2ccccc2)CC1 [Compound 6]
- IC50 [1, 6]: 50 to 500 nM
